Measurements as given in patent publication US8791163B2 (McGill University, priority 2006, dated 2014).
Values joined by “and” are separate entries in the source; they are usually repeats but may differ in a detail not shown here. Equal values may be shown once. “Also recorded” adds a separate entry of the source. Read-outs that look alike come from different tables or passages of the source.

Legend:
Assay type in all cases: in vivo, rat
[1] = test system: Adult Sprague Dawley rats; experiment: Elevated plus maze (EPM); conditions: diazepam 2 mg/kg, injected 45 min before test
Method: The maze is comprised of two open arms (50×10 cm) and two closed arms (50×10×40 cm) that extend from a common central platform (10×10 cm). The apparatus, made of wood (painted black) was elevated to a height of 80 cm above floor level. The closed arms are located opposite one another. Behavior is recorded over a period of 5 min using a video camera positioned directly above the maze and rated by an observer blind to drug conditions. The major measure of interest is the amount of time spent in the open arms. As an index of general activity and distribution, the total number of entries into both open and closed arms was also recorded. […] In order to increase the sensitivity of this test to anxiolytic activity, tests are carried out under normal room illumination (25 W bulb).

[2] = test system: Sprague Dawley rats; experiment: Novelty-Induced Suppressed Feeding (NSF) Test; conditions: diazepam 2 mg/kg s.c., 45 min before the test
Method: The NSF test is used to assess the anti-anxiety effect of a drug [Bodnoff et al. Psychopharmacology 1988, 95(3), 298-307]. Sprague Dawley rats were used in the NSF test. The testing apparatus comprises a brightly lit open area covered with lab chow pellets. Forty-eight hours prior to behavioral testing, all food was removed from the apparatus. Animals treated with compound 5b (40 or 80 mg/kg) were injected 60 min before the test, whereas animals treated with vehicle (DMSO/saline 7:3) or diazepam were injected 45 min before the test. The drugs were administered subcutaneously and the experiments were conducted after 5:30 PM. The latency to feed, defined as chewing the food as opposed to merely sniffing or playing with a pellet, was then recorded (Table 6). The experiment was terminated for those animals that had not begun eating within a period of 360 seconds, which animals were assigned a latency score of 360 seconds. All analyses were conducted using Sigma Stats and SPSS software. The results are expressed as the mean±SEM per n (number) animals tested (*, p<0.01, ANOVA or t test).

[3] = test system: Male rats (Sprague-Dawley); experiment: EEG and EMG sleep recordings (slow wave sleep, REM sleep, wakefulness)
Method: Male rats (Sprague-Dawley) weighing approximately 300-340 g were used for surgical implantation of electroencephalogram (EEG) and electromyogram (EMG) electrodes. Following the recovery from surgery, the animals were housed separately in cages and kept on a 12-hour light/dark cycle (12 h light-12 h dark, 7:30 AM lights on) at a controlled temperature (21° C.). The rats had free access to food and water ad libitum.
Rats were anaesthetized using equithesin (425 mg chloral hydrate, 1 ml 100% ethanol, 98 mg pentobarbitone, 213 mg magnesium sulphate and 3 ml propylene glycol, sterile water per 10 ml of solution; 1 ml per 300 g body weight i.p.) and placed in a stereotactic frame. The skull was exposed and carefully cleaned. Two stainless-steel epidural electrodes were implanted for the registration of the EEG under stereotactic control, through 1.5 mm burr holes at the coordinates corresponding to the right parietal-occipital cortex (AP=−2 mm L=3 mm; AP=−7 mm L=3 mm) and the left parietal-occipital cortex (AP=−4.5 mm L=3 mm) according to the atlas by Paxinos (The Rat Brain in Stereotaxic Coordinates, Academic Press, 1995). Three stainless steel wire electrodes, isolated except for the last few millimeters, were implanted into the neck muscles (two bilaterally and one in the middle) for the monitoring of the EMG. The EEG epidural electrodes and the EMG wires were fitted to a six-pin female connector. For fixation to the skull, the wires and connector were covered with dental acrylic (Coltene/Whaledent Inc. USA). The animals were allowed to recover from the surgery for at least 3-4 days.
Twenty-four hours (24 h) following the surgery, the rats were placed in the recording room from noon to 9:00 PM, for 3-4 days. The rats were connected to the 6-flat cable (3M), in a freely-moving manner, from 6:00 PM to 9:00 PM for habituation. No recordings were performed at this time, however, the tolerance to the cable and the sleep behavior were observed.
Following 3-4 days of habituation, the rats received the injection of a vehicle (DMSO/saline 7:3, 0.2 ml s.c.) at 6:00 PM and the recording was carried out until 9:00 PM. On the following day the rats received diazepam (2 mg/kg, s.c.) at 6:00 PM and the recording was performed until 9:00 PM. Four days following the injection of diazepam, the rat received 5b (40 mg/kg s.c.) and the recording also performed from 6 to 9 PM.
For each experiment, a rat was placed individually in the cage and monitoring of the signal was carried out via the attachment of a non-restraining 6-wire flat cable and a female connector, which was connected to an impedance transformer with a gain of 10, located above the cage. The EEG signal was amplified (resulting in a total gain of 10,000) and locally filtered. The EMG signal was amplified as the EEG, (EEG: low filter 1.0 Hz; high 1 KHz, EMG: low filter 30.0 Hz; high 3 KHz). The power spectra analysis was performed for identification of the sleep stages. The behavior of the animals was observed during the experiment (eye movements, ambulation, rearing etc.).
The three classical vigilance-sleep states described in the rat were discriminated on the basis of the cortical EEG and neck EMG, following the classification by Ruigt et al. (Electroencephalography and clinical Neurophysiology, 1989, 73: 52-63). Wakefulness was identified by a low-amplitude and desynchronized EEG with sustained EMG activity. Slow wave sleep (SWS, includes Quiet sleep, deep sleep and Pre-REM) was clearly distinguished by high-voltage delta waves (2-4 Hz) and spindles associated with a […] EMG activity. Pre-REM sleep was characterized by a clear theta rhythm in the EEG, frequently alternating with short lasting, high voltage spindles. REM sleep was characterized by a low-amplitude EEG with a pronounced theta rhythm (5.5-8.5 Hz), a complete loss of muscle tone, and a low voltage EMG. […]

[4] = diazepam 2 mg/kg s.c., Mean ± SEM of 11 rats
[5] = diazepam 2 mg/kg s.c., Mean ± SEM of 11 rats, listed as diazepam
[6] = diazepam 2 mg/kg s.c., individual rats 1-11

## CN1C(=O)CN=C(c2ccccc2)c2cc(Cl)ccc21 [Diazepam]
[1]
  Head Dips: 11.37 ± 2.12 (P = 0.01)
  Percentage of time in Closed Arms: 67.75 ± 5.87 (P = 0.007) %
  Percentage of time in Open Arms: 32.25 ± 5.9 (P = 0.006) %
  Total time duration in the Closed Arms: 178.71 ± 18.16 (P = 0.006) sec/closed arm
  Total time duration in the Open Arms: 122.0 ± 18.0 (P = 0.008) sec/open arm
[1]; listed as diazepam
  Head Dips: increase in the number of head dips
[2]
  Latency (sec) to feed: 36.10 ± 15.32 (P ≦ 0.001)* sec
[2]; listed as diazepam
  Latency (sec) to feed: decreased latency to feed
[3]
  Slow Wave Sleep Duration: 58.45 min and 89.15 min and 84 min and 105.18 min and 99.03 min and 103.14 min and 92.36 min and 114.55 min and 94.85 min and 88.22 min and 83.9 min
  Slow Wave Sleep Latency: 18.02 min and 3.98 min and 8.25 min and 2.86 min and 6.93 min and 3.06 min and 18.42 min and 13.59 min and 22.5 min and 6.51 min and 26.36 min
  Wakefulness Duration: 69.58 min and 73.27 min and 68.04 min and 83.4 min and 62.00 min and 82.58 min and 85.76 min and 66.32 min and 115.52 min and 71.04 min and 80.79 min
[3]; [4]
  REM Sleep Duration: 6.5 ± 0.7 min
  REM Sleep Latency: 74.5 ± 5.2 min
  REM Sleep Mean of a Single Episode: 1.43 ± 0.11 min
  REM Sleep Number (episodes): 4.6 ± 0.5 episodes
  Slow Wave Sleep Duration: 92.0 ± 4.4 min
  Slow Wave Sleep Mean of a Single Episode: 5.4 ± 0.38 min
  Slow Wave Sleep Number (episodes): 18.0 ± 1.6 episodes
  Wakefulness Duration: 78.2 ± 4.43 min
  Wakefulness Mean of a Single Episode: 2.7 ± 0.84 min
  Wakefulness Number (episodes): 17.0 ± 1.52 episodes
[3]; [5]
  REM Sleep Duration (min): significantly decreases
  REM Sleep Latency (min): significantly increases
  REM Sleep Number (episodes): significantly decreases
  Slow Wave Sleep Duration (min): increase the duration of the SWS; also recorded: significantly increases
  Slow Wave Sleep Latency (min): significantly decreases
  Slow Wave Sleep Mean of a Single Episode (min): significantly increase
  Slow Wave Sleep Number (episodes): no influence
  Wakefulness Duration (min): significantly decreases
  Wakefulness Number (episodes): no influence
[3]; [6]
  REM Sleep Duration: 6.04 min and 5.45 min and 12.03 min and 5.18 min and 7.71 min and 8.81 min and 4.23 min and 5.86 min and 2.55 min and 8.52 min and 5.62 min
  REM Sleep Latency: 102.43 min and 56.83 min and 56.59 min and 96.4 min and 61.69 min and 93.4 min and 72.26 min and 86.41 min and 58.92 min and 73.3 min and 61.33 min
  REM Sleep Mean of a Single Episode: 1.51 min and 1.816 min and 1.718 min and 1.295 min and 1.542 min and 0.978 min and 1.05 min and 1.465 min and 0.85 min and 2.13 min and 1.405 min
  REM Sleep Number (episodes): 4 episodes (6×) and 3 episodes (2×) and 7 episodes and 5 episodes and 9 episodes
  Slow Wave Sleep Mean of a Single Episode: 6.49 min and 7.42 min and 3.11 min and 5.53 min and 4.3 min and 5.15 min and 4.39 min and 4.98 min and 6.77 min and 5.18 min and 6.45 min
  Slow Wave Sleep Number (episodes): 9 episodes and 12 episodes and 27 episodes and 19 episodes and 23 episodes (2×) and 20 episodes and 21 episodes and 14 episodes and 17 episodes and 13 episodes
  Wakefulness Mean of a Single Episode: 12.83 min and 5.92 min and 4.03 min and 3.66 min and 3.05 min and 4.00 min and 3.79 min and 2.69 min and 5.5 min and 5.71 min and 6.02 min
  Wakefulness Number (episodes): 9 episodes and 12 episodes and 20 episodes and 19 episodes and 24 episodes and 17 episodes and 22 episodes and 23 episodes and 15 episodes (2×) and 11 episodes
